From PMC8699473, “An Easily Expandable Multi-Drug LC-MS Assay for the Simultaneous Quantification of 57 Oral Antitumor Drugs in Human Plasma” (Cancers, 2021)

What was measured:
[1] = Autosampler stability of ready for injection samples; format: physicochemical, human
[2] = set-up: method as in supplement references [1-55] as printed per drug; settings: minimum steady-state blood plasma concentration after multiple dose administration; ref supplement references [1-55] per drug; cited from earlier work
[3] = Freeze-thaw stability in spiked pooled human plasma; format: physicochemical

Row | SMILES | Autosampler (24h, 4°C) Accuracy [%] ([1]; validation standard 2xLLOV) | Autosampler (72h, 4°C) Accuracy [%] ([1]; validation standard 2xLLOV) | Autosampler (24h, 4°C) Accuracy [%] ([1]; validation standard LLOV) | Autosampler (72h, 4°C) Accuracy [%] ([1]; validation standard LLOV) | Autosampler (24h, 4°C) Accuracy [%] ([1]; validation standard MOV) | Autosampler (72h, 4°C) Accuracy [%] ([1]; validation standard MOV) | Autosampler (24h, 4°C) Accuracy [%] ([1]; validation standard ULOV) | Autosampler (72h, 4°C) Accuracy [%] ([1]; validation standard ULOV) | cmin [2] [ng/mL] | Freeze-Thaw Accuracy [%] ([3]; validation standard 2xLLOV) | Freeze-Thaw Accuracy [%] ([3]; validation standard LLOV) | Freeze-Thaw Accuracy [%] ([3]; validation standard MOV) | Freeze-Thaw Accuracy [%] ([3]; validation standard ULOV)
1 | CNCc1ccc(-c2[nH]c3cc(F)cc4c3c2CCNC4=O)cc1 [Rucaparib] | 98.1 | 96.4 | 104.5 | 104.1 | 104.6 | 103.8 | 100.1 | 102.4 | 1754 | 93.7 | 104.4 | 97.8 | 95.5
2 | N#CC[C@H](C1CCCC1)n1cc(-c2ncnc3[nH]ccc23)cn1 [Ruxolitinib] | 100.5 | 97.7 | 93.9 | 94.4 | 102.4 | 99.7 | 100.1 | 99.7 | 11.4 | 94.7 | 92.5 | 96.2 | 97.2
3 | Cc1c(C(=O)Nc2ccc(N3C[C@@H](C)O[C@@H](C)C3)nc2)cccc1-c1ccc(OC(F)(F)F)cc1 [Sonidegib] | 101.5 | 101.9 | 109.3 | 100.0 | 99.4 | 101.1 | 101.3 | 98.1 | 890 | 97.9 | 103.7 | 96.5 | 99.0
4 | CNC(=O)c1cc(Oc2ccc(NC(=O)Nc3ccc(Cl)c(C(F)(F)F)c3)cc2)ccn1 [Sorafenib] | 103.1 | 104.1 | 112.0 | 104.9 | 101.0 | 103.5 | 101.7 | 98.3 | 3750 | 97.6 | 103.3 | 96.9 | 98.7
5 | O=C1CCC(N2C(=O)c3ccccc3C2=O)C(=O)N1 (stereo not drawn) [Thalidomide] | 102.3 | 101.6 | 98.2 | 98.0 | 105.2 | 96.2 | 96.9 | 97.8 | 600 | 78.3 | 83.3 | 74.7 | 72.8
6 | COc1cc2nccc(Oc3ccc(NC(=O)Nc4cc(C)on4)c(Cl)c3)c2cc1OC [Tivozanib] | 101.5 | 102.7 | 94.0 | 95.0 | 104.6 | 102.4 | 101.6 | 103.1 | 80 | 96.8 | 90.0 | 99.9 | 98.1
